Drawing on patent US20230009608A1, “GRK2 INHIBITORS AND USES THEREOF” (Cygnal Therapeutics, Inc., priority 2020, published 2023), this text covers IC50 for 48 molecules.

The test system of assay [1] is PAXF1657 control empty vector cell line. In words: 7-day proliferation assay, PAXF1657 control empty vector cell line (Example 9). The following applies: 168 h; Cell Line: PAXF1657 empty vector (EV) cell line; 7-day; read-out: C: 7-day proliferation assay: IC50 GeoMean. It is filed as cell-based. The method, boiled down: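 PAXF1657 isogenic lines (GRK2-overexpressing vs empty vector; CRISPR GRK2 knockout vs non-targeting control clones) seeded 500 cells/well in RPMI1640/10% FBS and treated next day with 10-point dilutions, 30 μM-0.0002 μM final, 0.3% DMSO. Media with compound refreshed after 3 days; viability read by CellTiter-Glo luminescence at day 7.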

The next assay concerns the target T1, GRK2 (Homo sapiens, UniProt P25098).
T1 construct: purchased SignalChem A14-10G
T1 sequence (P25098 1-689): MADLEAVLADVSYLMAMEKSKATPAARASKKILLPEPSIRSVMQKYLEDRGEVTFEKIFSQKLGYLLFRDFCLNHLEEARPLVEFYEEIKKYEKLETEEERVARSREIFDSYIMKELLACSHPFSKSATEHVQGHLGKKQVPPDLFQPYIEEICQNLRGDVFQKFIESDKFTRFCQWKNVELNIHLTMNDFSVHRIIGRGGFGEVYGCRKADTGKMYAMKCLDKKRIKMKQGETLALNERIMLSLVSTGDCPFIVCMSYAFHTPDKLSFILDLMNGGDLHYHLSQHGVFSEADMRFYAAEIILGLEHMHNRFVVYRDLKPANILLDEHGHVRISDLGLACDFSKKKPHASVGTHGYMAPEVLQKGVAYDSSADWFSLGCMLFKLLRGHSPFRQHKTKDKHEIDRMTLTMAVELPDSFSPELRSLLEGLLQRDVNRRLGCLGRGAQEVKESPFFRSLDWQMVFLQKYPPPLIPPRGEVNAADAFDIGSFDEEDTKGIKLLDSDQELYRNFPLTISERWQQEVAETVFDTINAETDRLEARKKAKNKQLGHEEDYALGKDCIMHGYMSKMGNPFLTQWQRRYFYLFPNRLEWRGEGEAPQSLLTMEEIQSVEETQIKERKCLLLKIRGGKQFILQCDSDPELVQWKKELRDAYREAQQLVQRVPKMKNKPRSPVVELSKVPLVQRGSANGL
The assay can be described thus: ADPGlo GRK2 Inhibition Assay (Example 8). It is filed as biochemical. The following applies: Enzyme Assay A, ADPGlo (Example 8); read-out: A: Enzymatic GRK2: IC50 (nM) (Example 8). The method, boiled down:
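GRK2 (15 nM 2× enzyme solution) was preincubated 15 min with compound, then reacted 180 min at room temperature with 2× mix of 20 μM ATP plus GRKtide in HEPES pH 7.5, MgCl2, Tween-20, DTT. ADP was detected by ADP-Glo luminescence. Percent inhibition was normalised to enzyme and no-enzyme controls, with dose-response curves from threefold dilutions starting at 100 μM.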
(In general: ADP-Glo first removes unused ATP, then detects ADP through luciferase.)

Bounds are passed on as bounds.

As to `CC(NC(=O)c1cccc(NCc2nnc(-c3ccncn3)n2C)c1)c1cnn(C)c1` (stereo not drawn), the IC50 in assay [1] is 190 nM; on GRK2 it was 17 nM.
Take `Cn1c(CNc2cccc(C(=O)NCc3cccc4ncccc34)c2)nnc1-c1ccncn1`: the IC50 is > 10000 nM in assay [1] and 11 nM on GRK2.
Taken in the same sequence, the figures for `Cc1nn(C)c(C)c1CNC(=O)c1cccc(NCc2nnc(-c3ccncn3)n2C)c1` were > 10000 nM and 26 nM.
Taken in the same sequence, the figures for `Cc1noc(C)c1CNC(=O)c1cccc(NCc2nnc(-c3ccncn3)n2C)c1` were 173 nM and 19 nM.
`Cc1nc(C)c(CNC(=O)c2cccc(NCc3nnc(-c4ccncn4)n3C)c2)s1`: the IC50 was > 10000 nM in assay [1] and 26 nM at GRK2.
On to `CC(NC(=O)c1cccc(NCc2nnc(-c3ccncn3)n2C)c1)c1ccn(C)n1` (stereo not drawn), for which the IC50 was found to be 2150 nM in assay [1] and 27 nM at GRK2.
For `COc1cc(F)cc(CNC(=O)c2cccc(NCc3nnc(-c4ccncn4)n3C)c2)c1`, the IC50 in assay [1] is > 10000 nM; at GRK2, 54 nM.
As for `Cc1ccccc1C(CO)NC(=O)c1cccc(NCc2nnc(-c3ccncn3)n2C)c1` (stereo not drawn), the IC50 stood at 8660 nM in assay [1] and 33 nM on GRK2.
Regarding `Cn1c(CNc2cccc(C(=O)NCc3ccc4c(c3)CCO4)c2)nnc1-c1ccncn1`, the results for the IC50 (in assay [1]; at GRK2) were 1670 nM and 16 nM, respectively.
`Cn1c(CNc2cccc(C(=O)NCc3cccc(F)c3F)c2)nnc1-c1ccncn1`: the figures for the IC50 (in assay [1]; at GRK2) were > 10000 nM and 16 nM, respectively.
Turning to `COc1cccc(CNC(=O)c2cccc(NCc3nnc(-c4ccncn4)n3C)c2)c1F`, the IC50 in assay [1] is > 10000 nM; on GRK2 it was 10 nM.
`COc1ccccc1CNC(=O)c1cccc(NCc2nnc(-c3ccncn3)n2C)c1`: the IC50 in assay [1] stood at 1900 nM; on GRK2, 20 nM.
Turning to `CC(NC(=O)c1cccc(NCc2nnc(-c3ccncn3)n2C)c1)c1nccn1C` (stereo not drawn), the values for the IC50 (in assay [1]; on GRK2) were 591 nM and 24 nM, respectively.
`CCn1ncnc1CNC(=O)c1cccc(NCc2nnc(-c3ccncn3)n2C)c1`: the IC50 is > 10000 nM in assay [1] and 370 nM at GRK2.
On to `Cc1nnc(CNC(=O)c2cccc(NCc3nnc(-c4ccncc4)[nH]3)c2)n1C1CC1`, for which the figures for the IC50 (in assay [1]; at GRK2) were > 10000 nM and 19 nM, respectively.
Taken in the same sequence, the figures for `O=C(NCc1cncc(F)c1)c1cccc(NCc2nnc(-c3ccncc3)[nH]2)c1` were > 10000 nM and 17 nM.
For `O=C(NCc1cncnc1)c1cccc(NCc2nnc(-c3ccncc3)[nH]2)c1`, the IC50 is > 10000 nM in assay [1] and 34 nM on GRK2.
For the molecule `Cc1noc(C)c1CNC(=O)c1cccc(NCc2nnc(-c3ccncc3)[nH]2)c1`, the IC50 in assay [1] was > 10000 nM; on GRK2, 24 nM.
As to `CC(C)n1cnnc1CNC(=O)c1cccc(NCc2nnc(-c3ccncc3)[nH]2)c1`, the IC50 in assay [1] was > 10000 nM; at GRK2 it was 210 nM.
On to `CC(NC(=O)c1cccc(NCc2nnc(-c3ccncc3)[nH]2)c1)c1ccon1` (stereo not drawn), for which the IC50 in assay [1] is > 10000 nM; at GRK2, 20 nM.
On to `CC1CC(NC(=O)c2cccc(NCc3nnc(-c4ccncc4)[nH]3)c2)c2ncnn21` (stereo not drawn), for which the figures for the IC50 (in assay [1]; at GRK2) were > 10000 nM and 37 nM, respectively.
Taken in the same sequence, the figures for `O=C(NC1CCCn2ncnc21)c1cccc(NCc2nnc(-c3ccncc3)[nH]2)c1` (stereo not drawn) were > 10000 nM and 20 nM.
Turning to `O=C(NC1CCCc2nccnc21)c1cccc(NCc2nnc(-c3ccncc3)[nH]2)c1` (stereo not drawn), the IC50 in assay [1] amounted to 736 nM; on GRK2, 12 nM.
Regarding `O=C(NC(CO)c1ccccn1)c1cccc(NCc2nnc(-c3ccncc3)[nH]2)c1` (stereo not drawn), the values for the IC50 (in assay [1]; on GRK2) were > 10000 nM and 20 nM, respectively.
For `Cc1ocnc1CNC(=O)c1cccc(NCc2nnc(-c3ccncc3)[nH]2)c1`, the IC50 in assay [1] is > 7500 nM; on GRK2, 8.3 nM.
As for `O=C(NCc1cnccn1)c1cccc(NCc2nnc(-c3ccncc3)[nH]2)c1`, the IC50 is > 10000 nM in assay [1] and 25 nM at GRK2.
For `Cn1c(CNc2cccc(C(=O)N[C@@H](CO)c3cc(F)ccc3F)c2)nnc1-c1ccncn1`, the IC50 is > 30000 nM in assay [1] and 10 nM on GRK2.
Taken in the same sequence, the figures for `Cn1c(CNc2cccc(C(=O)NC(CO)c3ccc(F)cc3)c2)nnc1-c1ccncn1` (stereo not drawn) were > 30000 nM and 14 nM.
Regarding `Cc1cncc(CNC(=O)c2cccc(NCc3nnc(-c4ccncn4)n3C)c2)c1`, the IC50 is > 30000 nM in assay [1] and 15 nM on GRK2.
Regarding `Cc1ccn2c(CNC(=O)c3cccc(NCc4nnc(-c5ccncn5)n4C)c3)nnc2c1`, the results for the IC50 (in assay [1]; at GRK2) were > 30000 nM and 14 nM, respectively.
With `CC(NC(=O)c1cccc(NCc2nnc(-c3ccncn3)n2C)c1)c1ccncc1` (stereo not drawn), the IC50 in assay [1] was determined as 2150 nM; on GRK2, 11 nM.
Consider `Cc1nn(C)cc1CNC(=O)c1cccc(NCc2nnc(-c3ccncn3)n2C)c1`, for which the IC50 came out at 6220 nM in assay [1] and 19 nM at GRK2.
On to `Cc1cc(CNC(=O)c2cccc(NCc3nnc(-c4ccncn4)n3C)c2)n(C)n1`, for which the IC50 in assay [1] was 4150 nM; at GRK2, 17 nM.
In the case of `CC(NC(=O)c1cccc(NCc2nnc(-c3ccncn3)n2C)c1)c1ccccn1` (stereo not drawn), the values for the IC50 (in assay [1]; at GRK2) were 522 nM and 29 nM, respectively.
On the same counts, the results for `Cn1ccc(CNC(=O)c2cccc(NCc3nnc(-c4ccncn4)n3C)c2)n1` are 1290 nM and 60 nM.
Take `Cn1c(CNc2cccc(C(=O)NCc3cc(Cl)ccn3)c2)nnc1-c1ccncn1`: the values for the IC50 (in assay [1]; at GRK2) were > 30000 nM and 45 nM, respectively.
With `Cn1c(CNc2cccc(C(=O)NCc3cnccn3)c2)nnc1-c1ccncn1`, the IC50 in assay [1] was > 30000 nM; on GRK2, 37 nM.
As for `CC(NC(=O)c1cccc(NCc2nnc(-c3ccncn3)n2C)c1)c1cn[nH]c1` (stereo not drawn), the IC50 amounted to 16800 nM in assay [1] and 13 nM at GRK2.
Consider `Cc1nc(C(C)NC(=O)c2cccc(NCc3nnc(-c4ccncn4)n3C)c2)no1` (stereo not drawn), for which the IC50 in assay [1] was > 30000 nM; at GRK2 it was 67 nM.
Take `Cc1cc(CNC(=O)c2cccc(NCc3nnc(-c4ccncn4)n3C)c2)nn1C`: the IC50 is > 30000 nM in assay [1] and 41 nM on GRK2.
As for `Cn1c(CNc2cccc(C(=O)NCc3ccnnc3)c2)nnc1-c1ccncn1`, the IC50 in assay [1] is > 30000 nM; on GRK2 it was 43 nM.
Consider `Cn1c(CNc2cccc(C(=O)NCc3cocn3)c2)nnc1-c1ccncn1`, for which the IC50 in assay [1] is > 30000 nM; on GRK2 it was 27 nM.
For `Cn1c(CNc2cccc(C(=O)NCc3cscn3)c2)nnc1-c1ccncn1`, the figures for the IC50 (in assay [1]; on GRK2) were > 30000 nM and 13 nM, respectively.
Regarding `Cn1c(CNc2cccc(C(=O)NCc3ccon3)c2)nnc1-c1ccncn1`, the IC50 in assay [1] is > 30000 nM; on GRK2, 23 nM.
Regarding `Cn1c(CNc2cccc(C(=O)NCc3nc(C4CC4)no3)c2)nnc1-c1ccncn1`, the IC50 in assay [1] is 5750 nM; at GRK2, 27 nM.
Regarding `Cn1cc(-c2cc(CNC(=O)c3cccc(NCc4nnc(-c5ccncn5)n4C)c3)ccn2)cn1`, the IC50 in assay [1] was > 30000 nM; at GRK2, 17 nM.
Consider `Cn1cc(CNC(=O)c2cccc(NCc3nnc(-c4ccncn4)n3C)c2)cn1`, for which the IC50 worked out at 9770 nM in assay [1] and 36 nM at GRK2.
Regarding `COCCOc1ccc(CNC(=O)c2cccc(NCc3nnc(-c4ccncn4)n3C)c2)cc1`, the IC50 in assay [1] is > 14200 nM; at GRK2 it was 20.4 nM.
